Test results taken from patent US11447533B2, “Antimicrobial and anticancer peptides and conjugates and compositions, methods, articles and kits relating thereto” (George Mason Research Foundation, Inc., priority 2018, dated 2022).

System: E. coli ML35p outer membrane
Assay: NPN assay, outer membrane perturbation
Type: cell-based, Escherichia coli
Details: DPBS; 25 μM peptide; 25 μM PMB = 100%
Procedure: Interactions with Bacterial Membranes. Interaction of the peptides with bacterial membranes in different phosphate buffers were evaluated using E. coli ML35p, constructed in our laboratory. At first, competent cells of E. coli ML35 were produced by conventional competent cell preparation method, then transformed with pBR322 plasmid. Transformed colonies were selected after growing on Luria-agar containing 50 μg/mL ampicillin. A single transformed colony was grown in presence of ampicillin first in Luria broth and then in MHBII and stored as 20% glycerol stock at −80° C. This frozen stock, on the day of the experiment, was thawed and grown in MHBII containing ampicillin up to OD600 nm=0.8-0.9, washed with PBS and then suspended in the respective buffer up to the required OD600 nm for use.
NPN Assay. The outer membrane perturbation of bacteria was evaluated by incubating E. coli ML35p with peptides in presence of NPN. 100 mM NPN in acetone was supplemented proportionately to a bacterial suspension of OD600 nm˜0.5 to achieve a final concentration of 20 μM of NPN and the mixture was equilibrated for 30 mins. Then, 90 μL of the bacterial suspension containing 20 μM NPN was added with 10 μL of 250 μM peptide (10×) solution in water and scanned for fluorescence intensity (excitation=350 nm, emission=420 nm). The % Perturbation was calculated by considering PMB to be causing 100% Perturbation and water (without peptide) as 0% Perturbation. Each peptide was tested in triplicate in each of the three phosphate buffers used.
When peptides partition from the bulk aqueous environment to the cellular membranes, they may cause small defects in the membrane organization, a signature of adsorption of the peptides into the membranes. Such small defects are called membrane perturbations and can be evaluated by utilizing molecular probes. One such molecular probe is NPN, which is a hydrophobic molecule and is usually repelled to enter the hydrophobic interiors of the membrane by the polar headgroups of membrane-lipids. However, when small defects and gaps are caused during the adsorption of the peptides into the membranes, NPN can enter through those defects and in the hydrophobic environment of the membrane interior the molecule fluoresces, which can be measured for quantification of the extent of membrane-perturbation and peptide adsorption in the cellular membrane.

In the case of KRWKKFFKKWK (SEQ ID NO: 12) [ATRA1-W2], the “membrane perturbation with respect to PMB” value is reported as “higher OM perturbation than ATRA1”.
